Data reported in publication PMC9122598, “NASP maintains histone H3–H4 homeostasis through two distinct H3 binding modes” (Nucleic Acids Research, 2022).
“Also recorded” adds a separate entry of the source.

Experiments:
Assay type in all cases: cell-based, human
[1] = tested on: soluble histone H3–H4 pool; experiment: Soluble histone pool in HCT116 NASP-dTAG cells (western blot of soluble extracts); details: 5 μM dTAG-13 48 h, complementation with DOX-induced sNASP
Procedure: Unless stated otherwise cells were grown in DMEM with Glutamax (35050061, Gibco), 10% FBS (12389802, Hyclone) and 1% penicillin/streptomycin (15140122, Gibco) at 37°C with 5% CO2. HeLa S3 and HCT116 pLVX-TetOne-Puro cell lines were grown under Puromycin selection (1 μg/ml, P8833, Sigma). In Hela S3 and HCT116 pLVX-TetOne-Puro, the expression of sNASP-TwinStrep-HA, referred as sNASP-Strep-HA above, wt and mutants was induced by treatment with 2 μg/ml Doxycycline (631311, Clontech) for 24–48 hours. HCT116 NASP-FKBP12^F36V (NASP-dTAG) were treated with 0.2% DMSO (67–68-5, Sigma) or 5 μM dTAG-13 (6605, Tocris) for the indicated times, to induce the degradation of endogenous NASP. […] 24 hours after seeding, cells were treated with either 0.2% DMSO or 5 μM dTAG-13 for 48 hours, and cell viability was quantified with CellTiter-Blue® Cell Viability Assay (G8080, Promega), according to the manufacturer's instructions. […]
Protein concentrations were measured using Pierce™ 660 nm Protein Assay Reagent (Thermo Scientific) or the Bradford protein assay (Bio-Rad). […] Western blots from three independent biological replicates were quantified using the software ImageJ, version 1.0.

[2] = tested on: endogenous s- and t-NASP, histone H3; experiment: Co-immunoprecipitation of sNASP-FLAG-Myc from HeLa S3; details: HeLa S3, transient transfection
Procedure: Protein concentrations were measured using Pierce™ 660 nm Protein Assay Reagent (Thermo Scientific) or the Bradford protein assay (Bio-Rad). For immunoprecipitation, 2–3 mg of sNASP-FLAG-myc and sNASP-Strep-HA extracts were incubated for 3 hours at 4°C degrees with 50 μl of anti-Flag M2 (A2220, Sigma) or Anti-TwinStrep Mag-Strep beads (2–4090-002, Iba). After incubation, the beads were washed five times in ice-cold wash buffer (150 mM NaCl, 0.02% Nonidet P40, 50 mM Tris-HCl pH 7.6, 0.1 mM EDTA, 5% glycerol). Bound proteins were eluted with either Laemmli sample buffer 1X (LSB 4X: Tris-HCl (200 mM, pH 6.8), SDS 4%, glycerol (40%), DTT (100 mM)) or biotin elution buffer 1X (BXT buffer, 2–1042-025, Iba), respectively. Western blotting was performed as described previously ([11]). Western blots from three independent biological replicates were quantified using the software ImageJ, version 1.0.

[3] = tested on: endogenous s- and t-NASP (NASP-FKBP12^F36V); experiment: Depletion of endogenous NASP in NASP-dTAG cells (western blot, immunofluorescence); details: HCT116 NASP-dTAG, 5 μM dTAG-13, 48 h
Procedure: Unless stated otherwise cells were grown in DMEM with Glutamax (35050061, Gibco), 10% FBS (12389802, Hyclone) and 1% penicillin/streptomycin (15140122, Gibco) at 37°C with 5% CO2. HeLa S3 and HCT116 pLVX-TetOne-Puro cell lines were grown under Puromycin selection (1 μg/ml, P8833, Sigma). In Hela S3 and HCT116 pLVX-TetOne-Puro, the expression of sNASP-TwinStrep-HA, referred as sNASP-Strep-HA above, wt and mutants was induced by treatment with 2 μg/ml Doxycycline (631311, Clontech) for 24–48 hours. HCT116 NASP-FKBP12^F36V (NASP-dTAG) were treated with 0.2% DMSO (67–68-5, Sigma) or 5 μM dTAG-13 (6605, Tocris) for the indicated times, to induce the degradation of endogenous NASP. […] 24 hours after seeding, cells were treated with either 0.2% DMSO or 5 μM dTAG-13 for 48 hours, and cell viability was quantified with CellTiter-Blue® Cell Viability Assay (G8080, Promega), according to the manufacturer's instructions.
Protein concentrations were measured using Pierce™ 660 nm Protein Assay Reagent (Thermo Scientific) or the Bradford protein assay (Bio-Rad). […] Western blots from three independent biological replicates were quantified using the software ImageJ, version 1.0. […]

[4] = tested on: HCT116 wt and NASP-dTAG cells; experiment: Cell viability (CellTiter-Blue); details: 5 μM dTAG-13, 48 h; mean n=3; ns = P>0.05
Procedure: Unless stated otherwise cells were grown in DMEM with Glutamax (35050061, Gibco), 10% FBS (12389802, Hyclone) and 1% penicillin/streptomycin (15140122, Gibco) at 37°C with 5% CO2. HeLa S3 and HCT116 pLVX-TetOne-Puro cell lines were grown under Puromycin selection (1 μg/ml, P8833, Sigma). In Hela S3 and HCT116 pLVX-TetOne-Puro, the expression of sNASP-TwinStrep-HA, referred as sNASP-Strep-HA above, wt and mutants was induced by treatment with 2 μg/ml Doxycycline (631311, Clontech) for 24–48 hours. HCT116 NASP-FKBP12^F36V (NASP-dTAG) were treated with 0.2% DMSO (67–68-5, Sigma) or 5 μM dTAG-13 (6605, Tocris) for the indicated times, to induce the degradation of endogenous NASP. In the complementation experiments, HCT116 cells were simultaneously treated with 2 μg/ml Doxycycline and either 0.2% DMSO or 5 μM dTAG-13 for 48 hours, to ensure a synchronized degradation of the endogenous protein and expression of sNASP-Strep-HA wt or mutants. For cell viability experiments, HCT116 cells were seeded at low confluency in a 24 well plate. 24 hours after seeding, cells were treated with either 0.2% DMSO or 5 μM dTAG-13 for 48 hours, and cell viability was quantified with CellTiter-Blue® Cell Viability Assay (G8080, Promega), according to the manufacturer's instructions.

[5] = tested on: HCT116 wt and NASP-dTAG cells; experiment: Cell cycle distribution (high-content microscopy, EdU); details: 5 μM dTAG-13, 48 h; mean n=3; ns = P>0.05
Procedure: HCTT116 wt and NASP-dTAG cells were seeded at a density of 3000 cells per well in 96 well plates (6055300, Cell carrier) and treated with either dTAG-13 (5 μM, 48 hours) or DMSO (0.2%, 48 hours). Before fixation, newly replicated DNA was labelled with EdU (20 mins, 10 μM) at 37°C. Cells were washed in ice-cold PBS, fixed (4% paraformaldehyde, 15 mins, 4°C) and washes twice in ice cold PBS. EdU staining followed the Click-iT plus Alexa647-picolyl azide protocol (Thermo Scientific) and DNA was stained with DAPI (4′,6-diamidino-2-phenylindole). Images were acquired on an Olympus ScanR high-content microscope and analysed with ScanR analysis software. Cell cycle gates were defined using mean EdU and total DAPI intensities.

## sNASP wild type (wt): epitope-tagged sNASP wild type (FLAG-Myc or Strep-HA)
[1]
  Level of soluble histones (H3, H4, H4K5ac): rescued the soluble histone pool
[2]
  Pull down of endogenous s- and t-NASP: pulled down both endogenous s- and t- NASP

## CC[C@H](C(=O)N1CCCC[C@H]1C(=O)O[C@H](CCc1ccc(OC)c(OC)c1)c1ccccc1OCC(=O)NCCCCCCOc1cccc2c1C(=O)N(C1CCC(=O)NC1=O)C2=O)c1cc(OC)c(OC)c(OC)c1 (some centres unmarked) [dTAG-13]
[1]
  Level of soluble histones (H3, H4, H4K5ac): reduced the pool of soluble histone H3–H4
[3]
  Depletion of endogenous NASP: efficient and stable depletion of endogenous s- and t-NASP isoforms
[4]
  Cell viability relative to DMSO: non-significant; also recorded: without dramatic effects on cell cycle progression and cell proliferation
[5]
  Cell cycle distribution: non-significant; also recorded: without dramatic effects on cell cycle progression and cell proliferation

## sNASP 6E mutant: sNASP-FLAG-Myc V265E I272E L282E V286E I300E L307E
[2]
  Pull down of endogenous s- and t-NASP: impaired
  Pull down of histone H3: efficiently pulled down histone H3
